System: Transport facilitation protein genes
Experiment: DNA chip mRNA expression in yeast, transport facilitation protein genes (Table 5)
Assay type: cell-based, Saccharomyces cerevisiae S288C
Procedure, shortened: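 Chemical exposure: 2 h, log-phase S. cerevisiae S288C, YPD, 25° C., dose set to inhibit growth without death. Profiling: mRNA labeled by reverse transcription with Cy3- or Cy5-dUTP, hybridized to whole-genome array. Output: fluorescence ratio against untreated culture.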

Q: How did the “The level of expressed mRNA in the presence of chemical substance/The level of expressed mRNA in the absence of chemical substance” value (yeast gene YGR260W) turn out when `Cl[C@H]1[C@H](Cl)[C@@H](Cl)[C@@H](Cl)[C@H](Cl)[C@H]1Cl` [(7), γ-hexachlorocyclohexane] was run?
A: 0.9

Q: And the “The level of expressed mRNA in the presence of chemical substance/The level of expressed mRNA in the absence of chemical substance” value (yeast gene YGR281W)?
A: 0.9

Q: What about the “The level of expressed mRNA in the presence of chemical substance/The level of expressed mRNA in the absence of chemical substance” value (yeast gene YHL035C) of the same molecule?
A: 1.7

Q: And the “The level of expressed mRNA in the presence of chemical substance/The level of expressed mRNA in the absence of chemical substance” value (yeast gene YHL040C)?
A: 4.0

Q: What about the “The level of expressed mRNA in the presence of chemical substance/The level of expressed mRNA in the absence of chemical substance” value (yeast gene YHL047C) of the same molecule?
A: 16.8

Q: And the “The level of expressed mRNA in the presence of chemical substance/The level of expressed mRNA in the absence of chemical substance” value (yeast gene YHR026W)?
A: 0.9

Q: And the “The level of expressed mRNA in the presence of chemical substance/The level of expressed mRNA in the absence of chemical substance” value (yeast gene YHR092C)?
A: 0.5

Q: What about the “The level of expressed mRNA in the presence of chemical substance/The level of expressed mRNA in the absence of chemical substance” value (yeast gene YHR094C) of the same molecule?
A: 0.8

Q: And the “The level of expressed mRNA in the presence of chemical substance/The level of expressed mRNA in the absence of chemical substance” value (yeast gene YHR175W)?
A: 1.6

Q: What about the “The level of expressed mRNA in the presence of chemical substance/The level of expressed mRNA in the absence of chemical substance” value (yeast gene YIL006W) of the same molecule?
A: 0.8

Q: What about the “The level of expressed mRNA in the presence of chemical substance/The level of expressed mRNA in the absence of chemical substance” value (yeast gene YIL022W) of the same molecule?
A: 0.7

Q: And the “The level of expressed mRNA in the presence of chemical substance/The level of expressed mRNA in the absence of chemical substance” value (yeast gene YIL056W)?
A: 0.6

Q: What about the “The level of expressed mRNA in the presence of chemical substance/The level of expressed mRNA in the absence of chemical substance” value (yeast gene YIL088C) of the same molecule?
A: 1.7

Q: And the “The level of expressed mRNA in the presence of chemical substance/The level of expressed mRNA in the absence of chemical substance” value (yeast gene YJL034W)?
A: 1.3

Q: And the “The level of expressed mRNA in the presence of chemical substance/The level of expressed mRNA in the absence of chemical substance” value (yeast gene YJL212C)?
A: 0.7

Q: And the “The level of expressed mRNA in the presence of chemical substance/The level of expressed mRNA in the absence of chemical substance” value (yeast gene YJL219W)?
A: 0.9

Q: What about the “The level of expressed mRNA in the presence of chemical substance/The level of expressed mRNA in the absence of chemical substance” value (yeast gene YJR077C) of the same molecule?
A: 0.7

Q: And the “The level of expressed mRNA in the presence of chemical substance/The level of expressed mRNA in the absence of chemical substance” value (yeast gene YJR106W)?
A: 1.0

Q: And the “The level of expressed mRNA in the presence of chemical substance/The level of expressed mRNA in the absence of chemical substance” value (yeast gene YJR121W)?
A: 1.0

Q: What about the “The level of expressed mRNA in the presence of chemical substance/The level of expressed mRNA in the absence of chemical substance” value (yeast gene YKL016C) of the same molecule?
A: 1.5

Q: What about the “The level of expressed mRNA in the presence of chemical substance/The level of expressed mRNA in the absence of chemical substance” value (yeast gene YKL146W) of the same molecule?
A: 0.9

Q: And the “The level of expressed mRNA in the presence of chemical substance/The level of expressed mRNA in the absence of chemical substance” value (yeast gene YKR039W)?
A: 1.0

Q: And the “The level of expressed mRNA in the presence of chemical substance/The level of expressed mRNA in the absence of chemical substance” value (yeast gene YKR067W)?
A: 2.0

Q: What about the “The level of expressed mRNA in the presence of chemical substance/The level of expressed mRNA in the absence of chemical substance” value (yeast gene YLL028W) of the same molecule?
A: 1.0

Q: And the “The level of expressed mRNA in the presence of chemical substance/The level of expressed mRNA in the absence of chemical substance” value (yeast gene YLR081W)?
A: 0.7

Q: What about the “The level of expressed mRNA in the presence of chemical substance/The level of expressed mRNA in the absence of chemical substance” value (yeast gene YLR295C) of the same molecule?
A: 1.1

Q: And the “The level of expressed mRNA in the presence of chemical substance/The level of expressed mRNA in the absence of chemical substance” value (yeast gene YLR348C)?
A: 0.9

Q: What about the “The level of expressed mRNA in the presence of chemical substance/The level of expressed mRNA in the absence of chemical substance” value (yeast gene YLR378C) of the same molecule?
A: 0.7

Q: What about the “The level of expressed mRNA in the presence of chemical substance/The level of expressed mRNA in the absence of chemical substance” value (yeast gene YMR011W) of the same molecule?
A: 0.8

Q: What about the “The level of expressed mRNA in the presence of chemical substance/The level of expressed mRNA in the absence of chemical substance” value (yeast gene YMR162C) of the same molecule?
A: 0.8

Q: What about the “The level of expressed mRNA in the presence of chemical substance/The level of expressed mRNA in the absence of chemical substance” value (yeast gene YMR203W) of the same molecule?
A: 0.8

Q: And the “The level of expressed mRNA in the presence of chemical substance/The level of expressed mRNA in the absence of chemical substance” value (yeast gene YNL055C)?
A: 1.2

Q: What about the “The level of expressed mRNA in the presence of chemical substance/The level of expressed mRNA in the absence of chemical substance” value (yeast gene YNL259C) of the same molecule?
A: 3.8

Q: And the “The level of expressed mRNA in the presence of chemical substance/The level of expressed mRNA in the absence of chemical substance” value (yeast gene YNR072W)?
A: 1.5

Q: What about the “The level of expressed mRNA in the presence of chemical substance/The level of expressed mRNA in the absence of chemical substance” value (yeast gene YOL119C) of the same molecule?
A: 2.2

Q: What about the “The level of expressed mRNA in the presence of chemical substance/The level of expressed mRNA in the absence of chemical substance” value (yeast gene YOL156W) of the same molecule?
A: 1.0

Q: And the “The level of expressed mRNA in the presence of chemical substance/The level of expressed mRNA in the absence of chemical substance” value (yeast gene YOL163W)?
A: 0.9

Q: What about the “The level of expressed mRNA in the presence of chemical substance/The level of expressed mRNA in the absence of chemical substance” value (yeast gene YOR035C) of the same molecule?
A: 1.3

Q: And the “The level of expressed mRNA in the presence of chemical substance/The level of expressed mRNA in the absence of chemical substance” value (yeast gene YOR130C)?
A: 1.3

Q: And the “The level of expressed mRNA in the presence of chemical substance/The level of expressed mRNA in the absence of chemical substance” value (yeast gene YOR153W)?
A: 2.6

Q: And the “The level of expressed mRNA in the presence of chemical substance/The level of expressed mRNA in the absence of chemical substance” value (yeast gene YOR270C)?
A: 1.0

Q: And the “The level of expressed mRNA in the presence of chemical substance/The level of expressed mRNA in the absence of chemical substance” value (yeast gene YOR273C)?
A: 0.4

Q: And the “The level of expressed mRNA in the presence of chemical substance/The level of expressed mRNA in the absence of chemical substance” value (yeast gene YOR316C)?
A: 1.4

Q: And the “The level of expressed mRNA in the presence of chemical substance/The level of expressed mRNA in the absence of chemical substance” value (yeast gene YOR332W)?
A: 0.9

Q: What about the “The level of expressed mRNA in the presence of chemical substance/The level of expressed mRNA in the absence of chemical substance” value (yeast gene YOR348C) of the same molecule?
A: 0.8

Q: What about the “The level of expressed mRNA in the presence of chemical substance/The level of expressed mRNA in the absence of chemical substance” value (yeast gene YPL036W) of the same molecule?
A: 0.3

Q: What about the “The level of expressed mRNA in the presence of chemical substance/The level of expressed mRNA in the absence of chemical substance” value (yeast gene YPL134C) of the same molecule?
A: 1.2

Q: And the “The level of expressed mRNA in the presence of chemical substance/The level of expressed mRNA in the absence of chemical substance” value (yeast gene YPL271W)?
A: 1.2

Q: What about the “The level of expressed mRNA in the presence of chemical substance/The level of expressed mRNA in the absence of chemical substance” value (yeast gene YPR192W) of the same molecule?
A: 0.9

Q: What about the “The level of expressed mRNA in the presence of chemical substance/The level of expressed mRNA in the absence of chemical substance” value (yeast gene YPR194C) of the same molecule?
A: 0.7
